Experiments:
male dd-strain mice [1] = experiment: Maximal electroshock seizure test; format: in vivo; conditions: Mus musculus, po, 1 h, P.O., shock 60 minutes after administration, suppression of tonic extensor in at least 3 of 5 mice, read-out: MED for anticonvulsive action, Maximal electroshock seizure test
Procedure: (1) Maximal electroshock seizure test
Groups of mice, each consisting of 5 male dd-strain mice having a weight of 20±1 g were orally administered with some of said compounds and 60 minutes thereafter, an electric current of 2,000 V, 50 mA was passed to both eyes of the mouse for 0.2 seconds to observe occurrence of tonic extensor. Suppression of tonic extensor occurrence on at least three mice was regarded as effective, and MED (minimum effective dose) for suppressing the convulsion was determined.

Acute toxicity test = conditions: mouse, in vivo, po; P.O., mice, suspension in 0.3% CMC, 7 days after administration
male dd-strain mice [2] = experiment: Pentetrazol-induced seizure test; format: in vivo; conditions: Mus musculus, po, P.O., 120 mg/kg pentetrazol s.c., suppression of clonic seizure in at least 3 of 5 mice, read-out: MED for anticonvulsive action, Pentetrazol-induced seizure test
Procedure: (2) Pentetrazol-induced seizure test
Groups of mice, each consisting of 5 male dd-strain mice having a weight of 20±1 g were subcutaneously administered by 120 mg/kg of pentetrazol, and occurrence of clonic seizure was observed. Suppression of clonic seizure occurrence on at least three mice was regarded as effective, and MED was determined.

male Carworth Farm mice = experiment: Anticonvulsive action: MES (maximum electroconvulsive procedure) and subcutaneous pentylenetetrazole seizure tests, combined evaluation; format: in vivo; conditions: Mus musculus, sc, dose levels 30, 100, 300 (600) mg/kg, MES and 85 mg/kg s.c. pentylenetetrazole tests, read-out: Evaluation (anticonvulsant activity class)
Procedure: The present test was performed in male Carworth Farm mice. All compounds were tested at least 3 dose levels (30, 100, 300 mg/kg) with a fourth dose of 600 mg/kg being performed when there was sufficient quantity available. The vehicles used to solubilize each compound were 30% aqueous polyethylene glycol solution (Compound Nos. 31 to 38, 45, 47 and 48) and 0.9% saline (Compound Nos. 44 and 46). The following two tests were performed. MES (Maximum electroconvulsive procedure) Maximal electroshock seizures were elicited with a 60 cycle alternating current of 50 mA intensity (5-7 times that necessary to elicit minimal electroshock seizures) delivered for 0.2 sec via corneal electrodes. A drop of 0.9% saline was instilled in the eye prior to application of the electrodes in order to prevent the death of the animal. Abolition of the hind limb tonic extension component of the seizure was defined as protection and results were expressed as: [formula] First, 85 mg/kg of pentylenetetrazole (produces seizures in greater than 95% of mice) was administered as a 0.5% solution subcutaneously in the posterior midline. […] Failure to observe even a threshold seizure (a single episode of clonic spasms of at least 5 sec duration) was defined as protection and the results were expressed as: [formula] (2) Evaluation method All results were classified into one of the following three evaluation standard: .circle.1 Anticonvulsant activity at 100 mg/kg or less .circle.2 Anticonvulsant activity at doses greater than 100 mg/kg, or anticonvulsant activity at 100 mg/kg not reinforced by similar activity at 300 mg/kg .circle.3 No anticonvulsant activity at doses up to and including 300 mg/kg

| SMILES | minimal effective dose (male dd-strain mice [1]) [mg/kg] | LD50 at 168 h (Acute toxicity test) [mg/kg] | minimal effective dose (male dd-strain mice [2]) [mg/kg] | minimal effective dose (male Carworth Farm mice) [mg/kg] |
| --- | --- | --- | --- | --- |
| CN1C(=O)CCN(c2ccc(Cl)cc2)C1=O [Compound 3, 1-(4-chlorophenyl)-3-methyl-dihydrouracil] | 75 | > 300 | 200 |  |
| CN1C(=O)CCN(c2cccc(C(F)(F)F)c2)C1=O [Compound 7, 3-methyl-1-(3-trifluoromethylphenyl)-dihydrouracil] | 100 | > 1000 | 100 |  |
| Cc1cc(Cl)ccc1N1CCC(=O)N(C)C1=O [Compound 9, 1-(2-methyl-4-chlorophenyl)-3-methyl-dihydrouracil] | 150 | > 300 | 200 |  |
| CN1CCC(=O)N(c2cc(Cl)ccc2Cl)C1=O [Compound 24, 3-(2,5-dichlorophenyl)-1-methyl-dihydrouracil] | 100 | > 300 | 100 |  |
| CN1CCC(=O)N(c2ccccc2Cl)C1=O [Compound 29, 3-(2-chlorophenyl)-1-methyl-dihydrouracil] | 150 | > 300 | 150 |  |
| CN1C(=O)CCN(c2ccc(Cl)cc2Cl)C1=O [Compound 31, 1-(2,4-dichlorophenyl)-3-methyl-dihydrouracil] | 100 | > 300 | 100 | ≤ 100 |
| O=C1CCN(c2ccc(Cl)cc2)C(=O)N1 [Compound 32, 1-(4-chlorophenyl)-dihydrouracil] |  |  |  | > 100 |
| CN1C(=O)CCN(c2ccc(C(F)(F)F)cc2)C1=O [Compound 33, 3-methyl-1-(4-trifluoromethylphenyl)-dihydrouracil] | 100 | > 300 | 300 | ≤ 100 |
| CN1CCC(=O)N(c2cccc(Cl)c2Cl)C1=O [Compound 34, 3-(2,3-dichlorophenyl)-1-methyl-dihydrouracil] | 150 | > 300 | 300 | ≤ 100 |
| CN1CCC(=O)N(c2ccccc2C(F)(F)F)C1=O [Compound 35, 1-methyl-3-(2-trifluoromethylphenyl)-dihydrouracil] |  |  |  | > 100 |
| CN1CCC(=O)N(c2ccc(Cl)cc2Cl)C1=O [Compound 36, 3-(2,4-dichlorophenyl)-1-methyl-dihydrouracil] | 100 | > 300 | 200 | ≤ 100 |
| Cc1cccc(Cl)c1N1C(=O)CCN(C)C1=O [Compound 37, 3-(2-chloro-6-methylphenyl)-1-methyl-dihydrouracil] |  |  |  | > 100 |
| CN1CCC(=O)N(c2ccccc2F)C1=O [Compound 38, 3-(2-fluorophenyl)-1-methyl-dihydrouracil] |  |  |  | > 100 |
| CN1C(=O)CCN(c2ccc(N)cc2)C1=O.Cl [Compound 44, 1-(4-aminophenyl)-3-methyl-dihydrouracil hydrochloride] |  |  |  | ≤ 100 |
| CN1CCC(=O)N(c2ccccc2[N+](=O)[O-])C1=O [Compound 45, 1-methyl-3-(2-nitrophenyl)-dihydrouracil] |  |  |  | > 100 |
| CN1CCC(=O)N(c2ccccc2N)C1=O.Cl [Compound 46, 3-(2-aminophenyl)-1-methyl-dihydrouracil hydrochloride] |  |  |  | > 100 |
| CN1CCC(=O)N(c2cccc3ccccc23)C1=O [Compound 47, 1-methyl-3-α-naphthyl-dihydrouracil] | 100 | > 300 | 200 | ≤ 100 |
| CCOC(=O)c1ccccc1N1C(=O)CCN(C)C1=O [Compound 48, 3-(2-ethoxycarbonylphenyl)-1-methyl-dihydrouracil] |  |  |  | ≤ 100 |
